On the set-up of data set [1]: species or system KM mice. The settings on record: mouse, in vivo, iv. How it is done:
To evaluate the clearance rates of [^68Ga]Ga-DOTA-CCK2R-dimer and [^68Ga]Ga-DOTA-CCK-66 from the blood, a pharmacokinetic study was conducted in male KM mice (4-6 weeks old, 18-20 g, n = 5/group). Each mouse received 3.7 MBq of radiotracer via tail vein injection, corresponding to approximately 120 pmol of [^68Ga]Ga-DOTA-CCK2R-dimer or 210 pmol of [^68Ga]Ga-DOTA-CCK-66. Blood samples were collected from the tail vein into preweighed capillary tubes at 1, 3, 5, 10, 15, 30, 60, 90, 120, and 150 min post-injection. The radioactivity of the blood samples was measured using a γ-counter, and the percent of injected dose per gram of tissue (%ID/g) was calculated. Additionally, we assessed the in vivo stability of [^177Lu]Lu-DOTA-CCK2R-dimer. Mice were intravenously injected with 7.4 MBq (≈ 240 pmol) of [^177Lu]Lu-DOTA-CCK2R-dimer (dissolved in 200 μL of saline; n = 3/group). Urine samples were collected at 1, 4, and 24 hours post-injection, then diluted, filtered through a 0.22 μm membrane, and analyzed by radio-HPLC.
All animal studies were approved by the Ethics Committee of Fudan University […]
Shanghai Cancer Center (No. FUSCC-IACUC- S2023- 0003). […]
Pharmacokinetics in Normal Mice
F or the pharmacokinetics study, […] male KM mice (4 - 6 weeks old, weighing 18 - 20 g) were administered either [68Ga]Ga-D O TA -CCK2R-dimer or [68Ga]Ga-D O TA -CCK- 66 (3.7 MBq per mouse, n = 5/group) via tail vein injection.
Blood samples were collected from the tail vein using pre-weighed capillary tubes at […]
Radioactivity levels were measured using a gamma counter, with decay correction applied based on the injection time. The percentage of injected dose per gram of tissue (%ID/g) was calculated for each time point. […]

The test system of the next data set is AR42J tumor-bearing mice. In words: in vivo. Further details: species or system BALB/c nude mice. The settings on record: mouse, 1 h. How it is done: To complement the imaging studies, biodistribution experiments were performed. AR42J tumor-bearing mice were intravenously injected with 3.7 MBq of [^68Ga]Ga-DOTA-CCK2R-dimer (≈ 120 pmol) or [^68Ga]Ga-DOTA-CCK-66 (≈ 210 pmol) (dissolved in 200 μL of saline; n = 3/group). The mice were sacrificed at 30, 60, and 120 min post-injection, and the tissues of interest were excised, weighed, and analyzed for radioactivity using a γ-counter. For blocking studies, a 400-fold excess of the lead compound was co-administered, and the mice were sacrificed at 1 h post-injection.
All animal studies were approved by the Ethics Committee of Fudan University
Shanghai Cancer Center (No. FUSCC-IACUC- S2023- 0003). Five-week-old female
BALB/c nude mice were purchased from Shanghai SLAC Laboratory Animal
Company. To establish cell-derived xenograft (CDX) models, 1 × 10⁶ AR42J cells
(100 μL) were subcutaneously inoculated into the right shoulder of each mouse. […]

1 molecule from publication PMC12439480, “Dimeric CCK2R radiotheranostic tracers synergize with mTOR inhibition for enhanced tumor therapy” (Theranostics, 2025) can be followed below.

Each structure is given as a SMILES string. Numbered stars: 1 amine (or outer) side, 2 acyl side, 3 side chain; on linkers, the order of the positions; unused ones are H or OH. Square brackets hold non-standard residues; d marks the D form. Side chains are listed from the residue outwards. Peptide text beside a SMILES is read from it. * marks the point of attachment. DOTA = O=C(O)CN1CCN(CC(=O)O)CCN(CC(=O)*)CCN(CC(=O)O)CC1; d(γGlu) = O=C(O)[C@@H](CCC(=O)[*:2])N[*:1]; 1Nal = N[C@@H](Cc1cccc2ccccc12)C(=O)O; NMeNle = CCCC[C@H](NC)C(=O)O; PEG4 = NCCOCCOCCOCCOCCC(=O)O

Molecule `CCCC[C@@H](C(=O)N[C@@H](CC(=O)O)C(=O)N[C@@H](Cc1cccc2ccccc12)C(N)=O)N(C)C(=O)[C@H](Cc1c[nH]c2ccccc12)NC(=O)CCOCCOCCOCCOCCNC(=O)CC[C@@H](NC(=O)CC[C@H](NC(=O)CN1CCN(CC(=O)O)CCN(CC(=O)O)CCN(CC(=O)O)CC1)C(=O)N[C@H](CCC(=O)NCCOCCOCCOCCOCCC(=O)N[C@@H](Cc1c[nH]c2ccccc12)C(=O)N(C)[C@@H](CCCC)C(=O)N[C@@H](CC(=O)O)C(=O)N[C@@H](Cc1cccc2ccccc12)C(N)=O)C(=O)O)C(=O)O` [[68Ga]Ga-DOTA-CCK2R-dimer] [metal not drawn] ({DOTA}-E([d(γGlu)-PEG4-Trp-NMeNle-Asp-1Nal-NH2])[d(γGlu)][PEG4]W[NMeNle]D[1Nal]-NH2) gave a t1/2α in data set [1] of 37.8 s. In the data set with AR42J tumor-bearing mice, this molecule came in with a Bladder uptake of 0.99 ± 0.77 %ID/g, a Heart uptake of 0.2 ± 0.15 %ID/g, a Kidney uptake of 12.32 ± 8.97 %ID/g and a Liver uptake of 3.88 ± 2.47 %ID/g.
